Here are results for seven compounds from US20250059205A1, “Heterocyclic Compounds and Methods of Use” (AMGEN INC., priority 2021, published 2025).

The subject of test [1] is Phosphorylation of ERK1/2 in A-427 cells. Put plainly: Phospho-ERK1/2 MSD Assay (A-427 cells). In kind it is cell-based. Particulars: Homo sapiens, A-427, 2 h, 2 h treatment, read-out: p-ERK (A427 cells) IC50. The method, boiled down:
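ERK1/2 phosphorylation measured by Meso Scale whole-cell lysate assay after A-427 cells were exposed to a titration of compound for 2 h at 37 °C.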

For test [2], the target named is GDP-bound KRAS protein (aa 1-169), containing both G12D and C118A amino acid substitutions (Homo sapiens, UniProt P01116, C118A/G12D). Description: KRAS G12D Coupled Nucleotide Exchange Assay. In kind it is biochemical. Particulars: 2 h compound pre-incubation. The protocol:
Following compound pre-incubation, purified SOS protein (aa 564-1049) and GTP (Roche 10106399001) were added to the assay wells and incubated for an additional 30 min. […] The assay plates were then read on a PerkinElmer EnVision Multilabel Reader, using AlphaScreen® technology, and data were analyzed using a 4-parameter logistic model to calculate IC50 values.

Test [3] deals with His-tagged KRAS G12D protein (Homo sapiens, UniProt P01116, G12D). Put plainly: KRAS G12D TR-FRET Assay. Type of test: binding. (In general: Time-resolved FRET reads energy transfer from a long-lived donor to a nearby acceptor.)
His-tagged KRAS G12D protein, sequence (P01116 1-188 isoform P01116-2 G12D): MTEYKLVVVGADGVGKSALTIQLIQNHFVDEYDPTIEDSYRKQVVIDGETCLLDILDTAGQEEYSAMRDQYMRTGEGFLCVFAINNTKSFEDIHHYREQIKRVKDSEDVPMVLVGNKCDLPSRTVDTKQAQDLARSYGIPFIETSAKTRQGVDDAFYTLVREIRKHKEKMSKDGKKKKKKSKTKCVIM
Test [4] relates to Phosphorylation of ERK1/2 in AsPC-1 cells. Put plainly: Phospho-ERK1/2 MSD Assay (AsPC-1 cells). As to conditions: Homo sapiens, ASPC1, 2 h, 2 hours treatment, read-out: p-ERK (AsPC-1 cells) IC50. Type of test: cell-based. The essentials:
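Read-out: MSD electrochemiluminescent detection of phosphorylated ERK1/2 in whole-cell lysates, fitted to a 4-parameter logistic curve for IC50. Prior to lysis, AsPC-1 cells (25,000 per well) received a 2 h compound dose-response at 37 °C.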

GDP-bound KRAS protein (aa 1-169), containing both G12D and C118A amino acid substitutions, sequence (P01116 1-169 isoform P01116-2 G12D/C118A): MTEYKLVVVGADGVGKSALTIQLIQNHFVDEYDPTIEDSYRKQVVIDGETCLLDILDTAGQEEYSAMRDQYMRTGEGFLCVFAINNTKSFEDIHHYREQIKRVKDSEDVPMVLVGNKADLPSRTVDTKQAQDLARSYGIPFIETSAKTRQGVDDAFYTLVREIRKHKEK

One may read the IC50 as the concentration at which inhibition is half-maximal. On to `Oc1cc(-c2ccc3c(N4C[C@H]5CC[C@@H](C4)N5)nc(OC[C@@]45CCCN4C[C@H](F)C5)nc3c2F)c2c(F)cccc2c1` [Example 141, 4-(4-((1R,5S)-3,8-diazabicyclo[3.2.1]octan-3-yl)-8-fluoro-2-(((2R,7aS)-2-fluorotetrahydro-1H-pyrrolizin-7a(5H)-yl)methoxy)quinazolin-7-yl)-5-fluoronaphthalen-2-ol], for which the IC50 in test [1] worked out at 10 nM; in test [3], 2 nM; in test [4], 93 nM. Further, the “Avg 2 h Coupled Exchange IC50” value in test [2] was 1 nM.
Take `Cc1cc2[nH]ncc2c(-c2ccc3c(N4[C@@H]5CC[C@H]4CNC5)nc(OC[C@@]45CCCN4C[C@H](F)C5)nc3c2)c1Cl` [Example 37, 4-((1R,5S)-3,8-diazabicyclo[3.2. 1]octan-8-yl)-7-(5-chloro-6-methyl-1H-indazol-4-yl)-2-(((2R,7aS)-2-fluorotetrahydro-1H-pyrrolizin-7a(5H)-yl)methoxy) quinazoline]: the results for the IC50 in test [1], in test [3] and in test [4] were more than 10000 nM, 193 nM and 6700 nM, respectively. Further, the “Avg 2 h Coupled Exchange IC50” value in test [2] was 73 nM.
On the same counts, the results for `Nc1cc(-c2ccc3c(N4[C@@H]5CC[C@H]4CNC5)nc(OC[C@@]45CCCN4C[C@H](F)C5)nc3c2F)c2ccccc2c1` [Example 26, 4-(4-((1R,5S)-3,8-diazabicyclo[3.2. 1]octan-8-yl)-8-fluoro-2-(((2R,7aS)-2-fluorotetrahydro-1H-pyrrolizin-7a(5H)-yl)methoxy)quinazolin-7-yl)naphthalen-2-amine] are 1110 nM, 34 nM, 692 nM and 18 nM.
Taken in the same sequence, the figures for `Oc1cc(-c2cc3nc(OC[C@@]45CCCN4C[C@H](F)C5)nc(N4C[C@@H]5CC[C@H]4CN5)c3cc2F)c2c(F)c(F)ccc2c1` [Example 173, 4-(4-((1S,4S)-2,5-diazabicyclo[2.2.2]octan-2-yl)-6-fluoro-2-(((2R,7aS)-2-fluorotetrahydro-1H-pyrrolizin-7a(5H)-yl)methoxy)quinazolin-7-yl)-5,6-difluoronaphthalen-2-ol] were 153 nM, 2 nM, 366 nM and 3 nM.
Consider `Fc1c(-c2cc(Cl)cc3ccccc23)c(Cl)cc2c(N3C[C@H]4CC[C@@H](C3)N4)nc(OC[C@@]34CCCN3C[C@H](F)C4)nc12` [Example 78, 4-((1R,5S)-3,8-diazabicyclo[3.2. 1]octan-3-yl)-6-chloro-7-(3-chloronaphthalen-1-yl)-8-fluoro-2-(((2R,7aS)-2-fluorotetrahydro-1H-pyrrolizin-7a(5H)-yl)methoxy) quinazoline], for which the IC50 in test [1] was more than 10000 nM; in test [3], 226 nM; in test [4] it was 6030 nM. The “Avg 2 h Coupled Exchange IC50” value in test [2] came to 90 nM.
On the same counts, the results for `CN1C[C@H](F)C[C@H]1COc1nc(N2[C@@H]3CNC[C@H]2COC3)c2cc(F)c(-c3cc(O)cc4ccccc34)c(F)c2n1` [Example 18, 4-(4-((1R,5S)-3-oxa-7,9-diazabicyclo[3.3. 1]nonan-9-yl)-6,8-difluoro-2-(((2S,4R)-4-fluoro-1-methylpyrrolidin-2-yl)methoxy)quinazolin-7-yl)naphthalen-2-ol] are 1590 nM, 60 nM, 2960 nM and 18 nM.
Taken in the same sequence, the figures for `Oc1ccc(Cl)c(-c2ccc3c(N4C[C@H]5CC[C@@H](C4)N5)nc(OC[C@@]45CCCN4C[C@H](F)C5)nc3c2)c1F` [Example 36, 3-(4-((1R,5S)-3,8-diazabicyclo[3.2. 1]octan-3-yl)-2-(((2R,7aS)-2-fluorotetrahydro-1H-pyrrolizin-7a(5H)-yl)methoxy)quinazolin-7-yl)-4-chloro-2-fluorophenol] were more than 10000 nM, 483 nM, more than 10000 nM and 82 nM.
